System: panel
Experiment: Panel comparison of carbonated lemonade with and without test substance (Example 3)
Type: in vivo
Settings: 0.03 wt.% of spray dried sample of Example 2 in carbonated lemonade (10% sugar, 1200 ppm citric acid, 100 ppm ascorbic acid, pH 3)
Method: A basic carbonated lemonade containing 10% sugar, 1200 ppm citric acid and 100 ppm ascorbic acid, was prepared. The pH of the lemonade was 3. This was used as the control. To the test lemonade the spray dried sample described in Example 2 was added in an amount of 0.03 wt. %. The two lemonades were compared by a panel.

Q: For `CC(O)C(=O)NCCOP(=O)(O)O` (stereo not shown) [N-lactoyl-ethanolaminie-phosphate, N-Lactoyl ethanolamine phosphate], which “taste description of lemonade compared with control” value is on record?
A: The value was “more acidic, more natural, more juicy, more complex”.
